Consider 66 compounds from patent US20100331348A1, “TROPANE DERIVATIVES USEFUL AS PESTICIDES” (SYNGENTA CROP PROTECTION, INC., priority 2007, published 2010).

Where only a bound is given, the exact number is not on record here.

For this assay, the system named is Erysiphe graminis f.sp. tritici. The assay can be described thus: Erysiphe graminis f.sp. tritici (wheat powdery mildew) leaf disk assay. The class given is in vivo. The note with it: Blumeria graminis, foliar, 96 h, preventive, four days after inoculation, read-out: control of fungal infection, Erysiphe graminis fsp. tritici.
Turning to `COc1cc(OC2C[C@H]3CC[C@@H](C2)N3c2ncnc3sccc23)cc(OC)c1OC` (stereo partly drawn) [Example 1.13], the pest or weed control at 200 ppm was at least 80%.

As to `Cc1ccc(-c2nc(Cl)c(C)c(OC3C[C@H]4CC[C@@H](C3)N4c3ncnc4sccc34)n2)cc1` (stereo partly drawn) [Example 1.97], the pest or weed control at 200 ppm is at least 80%.

For the compound `CCCCCCOc1ccc(OC2C[C@H]3CC[C@@H](C2)N3c2ncnc(CC)c2Cl)cc1` (stereo partly drawn) [Example 1.140], the pest or weed control at 200 ppm was at least 80%.

Take `CCc1ncnc(N2[C@@H]3CC[C@H]2CC(Oc2ccc(C)cc2)C3)c1Cl` (stereo partly drawn) [Example 1.162]: the pest or weed control at 200 ppm was at least 80%.

In the case of `CCc1ncnc(N2[C@@H]3CC[C@H]2CC(Oc2ccc(Br)cc2C)C3)c1Cl` (stereo partly drawn) [Example 1.180], the pest or weed control at 200 ppm is at least 80%.

As for `CCc1ncnc(N2[C@@H]3CC[C@H]2CC(Oc2cc(Cl)c(Cl)cc2Cl)C3)c1Cl` (stereo partly drawn) [Example 1.196], the pest or weed control at 200 ppm was at least 80%.

For the compound `CCc1ncnc(N2[C@@H]3CC[C@H]2CC(Oc2ccc(C(C)(C)C)cc2C(C)(C)C)C3)c1Cl` (stereo partly drawn) [Example 1.221], the pest or weed control at 200 ppm is at least 80%.

As to `COc1ccccc1OC1C[C@H]2CC[C@@H](C1)N2c1ncnc2sccc12` (stereo partly drawn) [Example 2.4], the pest or weed control at 200 ppm is at least 80%.

Take `c1cc(OC2C[C@H]3CC[C@@H](C2)N3c2ncnc3sccc23)ccn1` (stereo partly drawn) [Example 2.7]: the pest or weed control at 200 ppm was at least 80%.

Turning to `Cc1ccc(OC2C[C@H]3CC[C@@H](C2)N3c2ncnc3sccc23)cc1` (stereo partly drawn) [Example 2.8], the pest or weed control at 200 ppm was at least 80%.

Regarding `Fc1ccc(OC2C[C@H]3CC[C@@H](C2)N3c2ncnc3sccc23)cc1` (stereo partly drawn) [Example 2.11], the pest or weed control at 200 ppm was at least 80%.

For `Clc1ccc(Oc2cccc(OC3C[C@H]4CC[C@@H](C3)N4c3ncnc4sccc34)c2)cc1` (stereo partly drawn) [Example 2.15], the pest or weed control at 200 ppm was at least 80%.

As to `COc1ccc(OC2C[C@H]3CC[C@@H](C2)N3c2ncnc3sccc23)c(Cl)c1` (stereo partly drawn) [Example 2.16], the pest or weed control at 200 ppm is at least 80%.

Consider `N#Cc1ccc(OC2C[C@H]3CC[C@@H](C2)N3c2ncnc3sccc23)cc1` (stereo partly drawn) [Example 2.22], for which the pest or weed control at 200 ppm was at least 80%.

On to `Fc1cccc(OC2C[C@H]3CC[C@@H](C2)N3c2ncnc3sccc23)c1F` (stereo partly drawn) [Example 2.24], for which the pest or weed control at 200 ppm was at least 80%.

Turning to `CC(C)(C)c1ccc(OC2C[C@H]3CC[C@@H](C2)N3c2ncnc3sccc23)cc1` (stereo partly drawn) [Example 2.26], the pest or weed control at 200 ppm is at least 80%.

In the case of `c1nc(C2C[C@H]3CC[C@@H](C2)N3c2ncnc3sccc23)c2ccsc2n1` (stereo partly drawn) [Example 2.28], the pest or weed control at 200 ppm was at least 80%.

In the case of `CC(C)(C)CC(C)(C)c1ccc(OC2C[C@H]3CC[C@@H](C2)N3c2ncnc3sccc23)cc1` (stereo partly drawn) [Example 2.35], the pest or weed control at 200 ppm was at least 80%.

For the compound `Fc1c(F)c(F)c(OC2C[C@H]3CC[C@@H](C2)N3c2ncnc3sccc23)c(F)c1F` (stereo partly drawn) [Example 2.38], the pest or weed control at 200 ppm was at least 80%.

Take `CSc1ccc(OC2C[C@H]3CC[C@@H](C2)N3c2ncnc3sccc23)cc1C` (stereo partly drawn) [Example 2.41]: the pest or weed control at 200 ppm is at least 80%.

On to `Cc1ccc(C(C)(C)C)c(OC2C[C@H]3CC[C@@H](C2)N3c2ncnc3sccc23)c1` (stereo partly drawn) [Example 2.43], for which the pest or weed control at 200 ppm is at least 80%.

Turning to `CC(C)(C)c1ccc(OC2C[C@H]3CC[C@@H](C2)N3c2ncnc3sccc23)c(C(C)(C)C)c1` (stereo partly drawn) [Example 2.45], the pest or weed control at 200 ppm was at least 80%.

For `CCC(C)c1cccc(C(C)CC)c1OC1C[C@H]2CC[C@@H](C1)N2c1ncnc2sccc12` (stereo partly drawn) [Example 2.46], the pest or weed control at 200 ppm was at least 80%.

For the compound `Cc1ccc(-c2c(C)cccc2C)c(C)c1OC1C[C@H]2CC[C@@H](C1)N2c1ncnc2sccc12` (stereo partly drawn) [Example 2.49], the pest or weed control at 200 ppm was at least 80%.

Regarding `c1ccc2c(c1)CCC2c1ccc(OC2C[C@H]3CC[C@@H](C2)N3c2ncnc3sccc23)cc1` (stereo partly drawn) [Example 2.53], the pest or weed control at 200 ppm is at least 80%.

As for `CC(=O)c1cc(Cl)c2ccccc2c1OC1C[C@H]2CC[C@@H](C1)N2c1ncnc2sccc12` (stereo partly drawn) [Example 2.59], the pest or weed control at 200 ppm is at least 80%.

`c1ccc(-c2nnco2)c(OC2C[C@H]3CC[C@@H](C2)N3c2ncnc3sccc23)c1` (stereo partly drawn) [Example 2.68]: the pest or weed control at 200 ppm was at least 80%.

In the case of `Cc1nsc(Oc2ccc(OC3C[C@H]4CC[C@@H](C3)N4c3ncnc4scc(C)c34)cc2)n1` (stereo partly drawn) [Example 2.72], the pest or weed control at 200 ppm was at least 80%.

On to `CCc1ncnc(N2[C@@H]3CC[C@H]2CC(Oc2cccc(Oc4nc(C)ns4)c2)C3)c1Cl` (stereo partly drawn) [Example 2.89], for which the pest or weed control at 200 ppm was at least 80%.

As for `CCc1ncnc(N2[C@@H]3CC[C@H]2CC(Oc2ccc(Oc4nc(C)ns4)cc2)C3)c1Cl` (stereo partly drawn) [Example 2.91], the pest or weed control at 200 ppm is at least 80%.

In the case of `Cc1c(Cl)ncnc1N1[C@@H]2CC[C@H]1CC(Oc1cccc(C(F)(F)F)n1)C2` (stereo partly drawn) [Example 2.94], the pest or weed control at 200 ppm was at least 80%.

For the compound `CCc1ncnc(N2[C@@H]3CC[C@H]2CC(Oc2cccc(F)c2)C3)c1Cl` (stereo partly drawn) [Example 2.117], the pest or weed control at 200 ppm is at least 80%.

For the compound `CCc1ncnc(N2[C@@H]3CC[C@H]2CC(Oc2ccc(F)c(F)c2)C3)c1Cl` (stereo partly drawn) [Example 2.125], the pest or weed control at 200 ppm was at least 80%.

Turning to `CCOc1cc(C)ccc1OC1C[C@H]2CC[C@@H](C1)N2c1ncnc(CC)c1Cl` (stereo partly drawn) [Example 2.126], the pest or weed control at 200 ppm is at least 80%.

In the case of `CCc1ncnc(N2[C@@H]3CC[C@H]2CC(Oc2ccc(C(C)(C)c4ccc(O)cc4)cc2)C3)c1Cl` (stereo partly drawn) [Example 2.131], the pest or weed control at 200 ppm is at least 80%.

In the case of `CCc1ncnc(N2[C@@H]3CC[C@H]2CC(Oc2ccc(C(=O)c4ccccc4)cc2)C3)c1Cl` (stereo partly drawn) [Example 2.141], the pest or weed control at 200 ppm was at least 80%.

As for `CCc1ncnc(N2[C@@H]3CC[C@H]2CC(Oc2ccc(OC)cc2Cl)C3)c1Cl` (stereo partly drawn) [Example 2.142], the pest or weed control at 200 ppm is at least 80%.

Turning to `CCc1ncnc(N2[C@@H]3CC[C@H]2CC(Oc2ccccc2C(F)(F)F)C3)c1Cl` (stereo partly drawn) [Example 2.146], the pest or weed control at 200 ppm was at least 80%.

Consider `CCc1ncnc(N2[C@@H]3CC[C@H]2CC(Oc2cccc(C(F)(F)F)c2F)C3)c1Cl` (stereo partly drawn) [Example 2.148], for which the pest or weed control at 200 ppm is at least 80%.

In the case of `COCc1ncnc(N2[C@@H]3CC[C@H]2CC(Oc2cc(C(F)(F)F)ccn2)C3)c1OC` (stereo partly drawn) [Example 2.152], the pest or weed control at 200 ppm is at least 80%.

On to `CCc1ncnc(N2[C@@H]3CC[C@H]2CC(Oc2ccc(C4CCc5ccccc54)cc2)C3)c1Cl` (stereo partly drawn) [Example 2.173], for which the pest or weed control at 200 ppm is at least 80%.

For `CCc1ncnc(N2[C@@H]3CC[C@H]2CC(Oc2ccc(Br)cc2C(C)=O)C3)c1Cl` (stereo partly drawn) [Example 2.182], the pest or weed control at 200 ppm was at least 80%.

As for `CCc1ncnc(N2[C@@H]3CC[C@H]2CC(Oc2c(C(C)=O)cc(Cl)c4ccccc24)C3)c1Cl` (stereo partly drawn) [Example 2.187], the pest or weed control at 200 ppm is at least 80%.

For the compound `CCc1ncnc(N2[C@@H]3CC[C@H]2CC(Oc2ccccc2-c2nnc(C(C)(C)C)o2)C3)c1Cl` (stereo partly drawn) [Example 2.190], the pest or weed control at 200 ppm was at least 80%.

For `FC(F)(F)c1ccnc(OC2C[C@H]3CC[C@@H](C2)N3c2ccnc3cc(Cl)ccc23)c1` (stereo partly drawn) [Example 2.192], the pest or weed control at 200 ppm was at least 80%.

Regarding `Cc1nsc(N2[C@@H]3CC[C@H]2CC(Oc2ccc(C(F)(F)F)cn2)C3)n1` (stereo partly drawn) [Example 2.203], the pest or weed control at 200 ppm is at least 80%.

With `CCC(=O)c1cc(F)c(OC2C[C@H]3CC[C@@H](C2)N3c2ncnc(CC)c2Cl)c(F)c1` (stereo partly drawn) [Example 2.207], the pest or weed control at 200 ppm is at least 80%.

Take `Cn1nc(C(F)(F)F)c(Cl)c1C(=O)N1[C@@H]2CC[C@H]1CC(Oc1cc(C(F)(F)F)ccn1)C2` (stereo partly drawn) [Example 2.220]: the pest or weed control at 200 ppm was at least 80%.

As for `CCc1ncnc(N2C3CCC2CC(=NOCc2c4ccccc4cc4ccccc24)C3)c1Cl` [Example 5.9], the pest or weed control at 200 ppm was at least 80%.

`CCc1ncnc(N2C3CCC2CC(=NOCc2ccc(C(C)(C)C)cc2)C3)c1Cl` [Example 5.26]: the pest or weed control at 200 ppm is at least 80%.

Consider `CCc1ncnc(N2C3CCC2CC(=NOCc2ccccc2CCl)C3)c1Cl` [Example 5.42], for which the pest or weed control at 200 ppm was at least 80%.

Turning to `C#CCON=C1CC2CCC(C1)N2c1ncnc(C(C)c2ncnc(CC)c2Cl)c1Cl` (stereo not drawn) [Example 5.49], the pest or weed control at 200 ppm was at least 80%.

With `CCc1ncnc(N2C3CCC2CC(=NOCc2ccc(Cl)c(Cl)c2)C3)c1Cl` [Example 5.52], the pest or weed control at 200 ppm is at least 80%.

Turning to `CCc1ncnc(N2C3CCC2CC(=NOCc2cc(Br)cc(Br)c2)C3)c1Cl` [Example 5.53], the pest or weed control at 200 ppm was at least 80%.

For `CCc1ncnc(N2C3CCC2CC(=NOCc2cc(Cl)ccc2Cl)C3)c1Cl` [Example 5.62], the pest or weed control at 200 ppm was at least 80%.

Take `CCc1ncnc(N2C3CCC2CC(=NOc2cc(Cl)nc(Cl)n2)C3)c1Cl` [Example 5.71]: the pest or weed control at 200 ppm is at least 80%.

In the case of `CCc1ncnc(N2C3CCC2CC(=NOc2nc(N(C)C)cc(C(F)(F)F)n2)C3)c1Cl` [Example 5.72], the pest or weed control at 200 ppm was at least 80%.

For the compound `CCc1ncnc(N2C3CCC2CC(=NOCc2cccc(OC(F)(F)F)c2)C3)c1Cl` [Example 5.75], the pest or weed control at 200 ppm was at least 80%.

With `CCc1ncnc(C(C)c2ncnc(N3C4CCC3CC(=NOCc3ccccc3)C4)c2Cl)c1Cl` (stereo not drawn) [Example 5.77], the pest or weed control at 200 ppm was at least 80%.

Consider `CCc1ncnc(N2C3CCC2CC(=NOc2cc(C)nc(SC)n2)C3)c1Cl` [Example 5.94], for which the pest or weed control at 200 ppm is at least 80%.

As to `CCc1ncnc(N2C3CCC2CC(=NOCc2cc(F)cc(C(F)(F)F)c2)C3)c1Cl` [Example 5.96], the pest or weed control at 200 ppm was at least 80%.

As to `CCc1ncnc(N2C3CCC2CC(=NOc2cc(OC)nc(OC)n2)C3)c1Cl` [Example 5.97], the pest or weed control at 200 ppm was at least 80%.

On to `CCc1ncnc(N2C3CCC2CC(=NOCc2cc(F)ccc2C(F)(F)F)C3)c1Cl` [Example 5.101], for which the pest or weed control at 200 ppm is at least 80%.

Consider `CCc1ncnc(C(C)c2ncnc(N3C4CCC3CC(=NOCc3ccc(F)cc3)C4)c2Cl)c1Cl` (stereo not drawn) [Example 5.102], for which the pest or weed control at 200 ppm is at least 80%.

In the case of `CCc1ncnc(N2C3CCC2CC(=NOCc2cc(F)c(F)c(C(F)(F)F)c2)C3)c1Cl` [Example 5.103], the pest or weed control at 200 ppm is at least 80%.

For `CCc1ncnc(N2C3CCC2CC(=NOc2cc(Oc4ccccc4)ncn2)C3)c1Cl` [Example 5.108], the pest or weed control at 200 ppm is at least 80%.
